“Also recorded” adds a separate entry of the source.
Key:
[1] = system: isolated embryonic rat cardiomyocytes; experiment: Spontaneous action potentials in rat cardiomyocytes, whole-cell patch clamp; format: cell-based; conditions: for effect on arrhythmic firing induced by Chromanol 293B: 30 μM N-AT in the presence of 5 μM Chromanol 293B
Protocol: On gestation day (GD) 16 of pregnancy time-mated Sprague Dawley rats (Taconic, Denmark) were sacrificed in a CO2 chamber followed by cervical dislocation. Cell preparation of cardiomyocytes and culturing on glass coverslips were made (Danielsson, C. et al. Cardiovasc Res 97, 23-32 (2013)). Spontaneous action potentials were measured using the patch-clamp technique, whole cell configuration, 1-3 days after culturing. An Axopatch 200B patch-clamp amplifier, Digidata 1140A converter (Molecular Devices) and pClamp software (Molecular Devices) were used to acquire data. The extracellular solution contained (in mM): 140 NaCl, 5.4 KCl, 1 MgCl2, 1.8 CaCl2, 10 Glucose and 10 HEPES (pH 7.4, adjusted with NaOH). The intracellular solution contained (in mM): 130 K-gluconate, 9 KCl, 8 NaCl, 10 EGTA, 1 MgCl2, 10 HEPES and 3 MgATP (pH 7.3, adjusted with KOH). The solutions were perfused through the recording chamber (flow: 0.5 mL/min). All chemicals were purchased from Sigma-Aldrich. […] All experiments were carried out at 35° C. To analyze action potential characteristics a stable 60-seconds recording was selected before and after application of the test solution. The average data were then calculated for the complete trace in Clampfit 10 (Molecular Devices). Liquid junction potential was not adjusted for.
Average values are expressed as mean±SEM. Mean values for shifts in voltage dependence were analyzed using a two-tailed one samplet-test where mean values were compared with a hypothetical value of 0 or where mean values were compared to each other. Effects of N-AT on action potential peak amplitude and RMP in cardiomyocytes were analyzed using paired two-tailed t-test. Effects of N-AT on the relative change of APD and RR-interval were analyzed using two-tailed one samplet-test where mean values were compared with a hypothetical value of 1. P<0.05 is considered as statistically significant.
The effect of N-arachidonoyl taurine on isolated embryonic rat cardiomyocytes was tested. A sub-saturating concentration of the IKs channel blocker Chromanol 293B, which is known to induce arrhythmia (Aiba, T. et al. J Am Coll Cardiol 45, 300-307 (2005)), was applied to the cardiomyocytes. In general, two types of effects are seen upon Chromanol 293B application: (1) arrhythmic firing (FIG. 8A-B) or (2) a slowing of the frequency of spontaneous action potential firing (FIG. 8D-E). The different effects are most likely due to different subtypes of cardiomyocytes. […] The anti-arrhythmic effect of N-arachidonoyl taurine was associated with a shortening of the cardiomyocyte action potential duration and an increase in the frequency of action potential firing (FIG. 8G-I, Table 2). 30 μM N-arachidonoyl taurine had no effect on the resting membrane potential (Table 2) but decreased the action potential peak amplitude by −9±1 mV (Table 2).
Cardiomyocytes were isolated from rat heart and the spontaneous electrical activity in the cardiomyocytes was measured using the current clamp mode of patch clamp. […] Further, arrhythmia was induced in these cardiomyocytes by the IKs specific drug chromanol. In the presence of 5 μM chromanol, there are clearly additional action potentials caused by early after depolarizations (EADs) (FIG. 9D). EADs are known to accompany Long QT and could lead to ventricular fibrillation and cardiac sudden death in the intact heart. […] N-AT and chromanol are known to bind to different parts of the IKs channels (chromanol is a pore blocker, whereas N-AT is binding to the voltage sensor), so this effect of N-AT is not just a competition with chromanol to the same binding site. Rather, N-AT increases the currents by attracting the voltage sensor, whereas chromanol is known to block the currents by binding to the pore.

in vitro = conditions: human, Caco-2
[2] = 30 μM N-AT vs control, listed as N-arachidonoyl taurine

For CCCCC/C=C\C/C=C\C/C=C\C/C=C\CCCC(=O)NCCS(=O)(=O)O [N-AT, N-arachidonoyl taurine], the “APD30, Mean ± SEM” value ([1]; 30 μM N-AT) was 211 ± 37 ms, the “APD50, Mean ± SEM” value ([1]; 30 μM N-AT) was 279 ± 47 ms and the “APD70, Mean ± SEM” value ([1]; 30 μM N-AT) was 336 ± 50 ms. For the same compound, the “Amplpeak (peak action potential amplitude), Mean ± SEM” value ([1]; 30 μM N-AT) was 32 ± 2 mV, the “RMP (resting membrane potential), Mean ± SEM” value ([1]; 30 μM N-AT) was −56 ± 2 mV and the “RR-interval, Mean ± SEM” value ([1]; 30 μM N-AT) was 2075 ± 197 ms. The “length of the ventricular action potential / action potential duration” value ([1]; 30 μM N-AT) was “reduced the length of the ventricular action potential; also recorded: shortened the cardiomyocyte action potential duration”, the “effect on arrhythmic firing induced by Chromanol 293B” value [1] was “restores rhythmic firing; also recorded: reversed the arrhythmic behavior” and the “effect on arrhythmic firing induced by Chromanol 293B” value ([1]; listed as N-arachidonoyl taurine) was “reversed the effect”. The “early after depolarizations (EADs)” value ([1]; 30 μM N-AT in the presence of 5 μM chromanol) was “removed these EADs”, the “APD30, Change (relative change)” value ([1]; 30 μM N-AT vs control) was 0.81 ± 0.04 and the “APD50, Change (relative change)” value ([1]; 30 μM N-AT vs control) was 0.83 ± 0.03. The “APD70, Change (relative change)” value ([1]; 30 μM N-AT vs control) was 0.84 ± 0.03, the “Amplpeak, Change” value ([1]; 30 μM N-AT vs control) was −9 ± 1 mV and the “RR-interval, Change (relative change)” value ([1]; 30 μM N-AT vs control) was 0.74 ± 0.05. The “Amplpeak, Change” value [1, 2] was −9±1 mV, the “RMP, Change” value [1, 2] was “no effect” and the “permeability coefficient (Papp)” value (Caco-2 cells) was 22×10^−6 cms^−1. For the same compound, the efflux ratio (in vitro) was 1.9.
